# Test results from ChEMBL document CHEMBL1914333, “Synthesis and evaluation of compounds that induce readthrough of premature termination codons” (Bioorg Med Chem Lett, 2011).
# Calls of active or inactive are those of the source. The rule behind the calls is not given here.
# How the values were obtained:
# [1] = target: T1, 80S Ribosome (Homo sapiens) (UniProt P08865+P42677+P62753+P15880+P23396+P61247+P62701+P22090+P46782+P62081+P62241+P46781+P46783+P62280+P25398+P62277+P62263+P62841+P62244+P62249+P08708+P62269+P39019+P60866+P63220+P62266+P62847+P62851+P62854+P62979+P62857+P62273+P62861+P39023+P36578+P46777+Q02878+P18124+P62424+P62917+P32969+P27635+P62906+P62913+P30050+P26373+P40429+P50914+P61313+P18621+Q07020+Q02543+P84098+P46778+P35268+P62829+P62750+P83731+P61254+P61353+P46776+P46779+P47914+P62888+P62899+P62910+P49207+P42766+P18077+Q9Y3U8+P83881+P61927+P61513+P63173+P62891+P62945+P05388+P05386); test: Induction of ribosome to readthrough in human A-T lymphoblastoid cells assessed as ATM ser1981 autophosphorylation at 30 uM after 4 days by PTT-ELISA assay; format: subcellular
# [2] = target: T1, 80S Ribosome (Homo sapiens); test: Induction of ribosome to readthrough in human A-T lymphoblastoid cells assessed as irradiation-induced ATM Ser1981 nuclear foci formation at 30 uM after 4 days by PTT-ELISA; format: subcellular
Compound,Flu intensity [1],Activity [2]
N=C1NC(=O)/C(=C/c2ccc(-c3ccccn3)o2)S1,inactive,–
N=C1NC(=O)/C(=C/c2ccc(-c3ccccc3Cl)o2)S1,inactive,–
N=C1NC(=O)/C(=C/c2ccc(-c3ccccc3)o2)S1,inactive,–
O=c1ccn(Cc2ccc(-c3ccccc3)o2)c(=O)[nH]1,3.42,9.4%
Cc1cn(Cc2ccc(-c3ccccc3)o2)c(=O)[nH]c1=O,3.8,22.8%
O=C1NC(=S)S/C1=C\c1ccc(-c2ccccc2[N+](=O)[O-])o1,inactive,–
COc1cccc(-c2ccc(/C=C3\SC(=S)NC3=O)o2)c1,2.66,–
Cc1cn(Cc2ccc(-c3ccccc3F)o2)c(=O)[nH]c1=O,6.16,9.6%
O=C1NC(=S)S/C1=C\c1cc2ccccc2o1,3.5,–
N=C1NC(=O)/C(=C/c2ccc(-c3cccc(Cl)c3)o2)S1,2.27,–
N=C1NC(=O)/C(=C/c2ccc(-c3cccc(F)c3)o2)S1,inactive,–
N=C1NC(=O)/C(=C/c2c[nH]c3ccccc23)S1,inactive,–
N=C1NC(=O)/C(=C/c2ccc(-c3ccccc3F)o2)S1,inactive,–
O=C1NC(=S)S/C1=C\c1cc2ccccc2[nH]1,inactive,–
COc1ccccc1-c1ccc(/C=C2\SC(=S)NC2=O)o1,inactive,–
O=C1NC(=S)S/C1=C\c1ccc(-c2ccccc2Cl)o1,3.55,–
O=C1NC(=S)S/C1=C\c1ccc(-c2ccccc2C(F)(F)F)o1,inactive,–
N=C1NC(=O)/C(=C/c2cn(Cc3ccc(-c4ccccc4[N+](=O)[O-])o3)c(=O)[nH]c2=O)S1,2.42,18%
N=C1NC(=O)/C(=C/c2ccc(-c3ccccc3[N+](=O)[O-])o2)S1,3.27,–
N=C1NC(=O)/C(=C/c2ccco2)S1,inactive,–
N=C1NC(=O)/C(=C/c2ccc(-c3ccccc3)s2)S1,inactive,–

Compound,Flu intensity [1],Activity [2]
Nc1ccn(Cc2ccc(-c3ccccc3[N+](=O)[O-])o2)c(=O)n1,inactive,inactive
N=C1NC(=O)/C(=C/c2ccc(-c3ccccc3C(F)(F)F)o2)S1,inactive,–
Cc1cn(Cc2ccc(-c3ccccc3[N+](=O)[O-])o2)c(=O)[nH]c1=O,inactive,inactive
O=c1ccn(Cc2ccc(-c3ccccc3F)o2)c(=O)[nH]1,5.43,20%
O=Cc1cn(Cc2ccc(-c3ccccc3[N+](=O)[O-])o2)c(=O)[nH]c1=O,2.24,16%
N=C1NC(=O)/C(=C/c2c[nH]c(=O)[nH]c2=O)S1,5.32,17%
O=c1ccn(Cc2ccc(-c3cccc(Cl)c3)o2)c(=O)[nH]1,5.07,11.3%
O=c1ccn(Cc2ccc(-c3ccccc3[N+](=O)[O-])o2)c(=O)[nH]1,4.94,10.7%
N=C1NC(=O)/C(=C/c2cc3ccccc3o2)S1,inactive,–
O=C1NC(=S)S/C1=C\c1ccc(-c2cccc(Cl)c2)o1,2.86,–
O=C1NC(=S)S/C1=C\c1c[nH]c2ccccc12,inactive,–
O=C1NC(=S)S/C1=C\c1ccc(-c2ccccc2F)o1,2.86,–
O=C1NC(=S)S/C1=C\c1ccc(-c2ccccn2)o1,inactive,–
O=C1NC(=S)S/C1=C\c1ccc(-c2cccc(F)c2)o1,3.44,–
Nc1nc(=O)n(Cc2ccc(-c3ccccc3[N+](=O)[O-])o2)cc1F,inactive,inactive
COc1ccccc1-c1ccc(/C=C2\SC(=N)NC2=O)o1,inactive,–
COc1cccc(-c2ccc(/C=C3\SC(=N)NC3=O)o2)c1,1.9,–
N=C1NC(=O)/C(=C/c2cc3ccccc3[nH]2)S1,inactive,–
O=c1[nH]c(=O)n(Cc2ccc(-c3ccccc3[N+](=O)[O-])o2)cc1F,2.08,14.5%
CN1C(=N)S/C(=C\c2ccc(-c3ccccc3[N+](=O)[O-])o2)C1=O,inactive,–
